Read-outs that look alike come from different tables or passages of the source.
Assays:
[1] = molecular target: α4β2 nAChR Subtype (Rattus norvegicus, UniProt P09483+P12390); assay: Radioligand binding at α4β2 nAChR subtype, inhibition of [3H]nicotine binding, rat cerebral cortex membranes; conditions: [3H]nicotine 5 nM
Experimental: The [^3H]nicotine (Specific Activity=81.5 Ci/mmol) was obtained from NEN Research Products. The binding of [^3H]nicotine was measured using a 3 h incubation at 4° C. […] Each filter was washed with ice-cold buffer (3×1 mL).
Each concentration was replicated in triplicate.

[2] = molecular target: Human α4β2 (Homo sapiens, UniProt P17787+P43681); assay: Binding at human α4β2 (Ki); method not described
[3] = NOR (novel object recognition) task; assay type: in vivo; conditions: orally, in rats
Experimental: Certain exemplified compounds were assessed in the NOR (novel object recognition) task. This illustrates efficacy and potency of the compounds of the present invention in treating cognitive deficits, attention disorders, and dementias, and the potential of these compounds for human therapy.

[4] = molecular target: α7 nAChR Subtype (Rattus norvegicus, UniProt Q05941); assay: Radioligand binding at α7 nAChR subtype, inhibition of [3H]MLA binding, rat hippocampus membranes (HTS at 5 μM, then Ki); conditions: for inhibition at 5 µM: read-out: α7 HTS outcome (α7 Ki)
[5] = read-out: α7 Ki, [3H]MLA 5 nM, rat hippocampus

Chain of α4β2 nAChR Subtype (P09483 31-630): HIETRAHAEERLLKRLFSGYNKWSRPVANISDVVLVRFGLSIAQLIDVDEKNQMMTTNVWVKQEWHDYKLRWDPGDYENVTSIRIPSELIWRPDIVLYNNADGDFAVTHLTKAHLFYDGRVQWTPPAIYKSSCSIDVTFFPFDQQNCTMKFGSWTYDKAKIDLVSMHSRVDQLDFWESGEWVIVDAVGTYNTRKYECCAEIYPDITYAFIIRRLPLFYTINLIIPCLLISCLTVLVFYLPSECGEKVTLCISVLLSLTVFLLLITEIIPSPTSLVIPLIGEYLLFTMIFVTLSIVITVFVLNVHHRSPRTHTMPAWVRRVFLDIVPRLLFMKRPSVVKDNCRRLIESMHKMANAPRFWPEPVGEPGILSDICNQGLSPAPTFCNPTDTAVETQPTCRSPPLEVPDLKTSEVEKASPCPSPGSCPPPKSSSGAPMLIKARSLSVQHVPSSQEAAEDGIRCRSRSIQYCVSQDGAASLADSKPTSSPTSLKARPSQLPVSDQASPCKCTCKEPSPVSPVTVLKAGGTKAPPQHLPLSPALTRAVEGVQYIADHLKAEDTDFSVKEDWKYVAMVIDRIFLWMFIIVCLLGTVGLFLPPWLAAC
Chain of α4β2 nAChR Subtype (P12390 25-500): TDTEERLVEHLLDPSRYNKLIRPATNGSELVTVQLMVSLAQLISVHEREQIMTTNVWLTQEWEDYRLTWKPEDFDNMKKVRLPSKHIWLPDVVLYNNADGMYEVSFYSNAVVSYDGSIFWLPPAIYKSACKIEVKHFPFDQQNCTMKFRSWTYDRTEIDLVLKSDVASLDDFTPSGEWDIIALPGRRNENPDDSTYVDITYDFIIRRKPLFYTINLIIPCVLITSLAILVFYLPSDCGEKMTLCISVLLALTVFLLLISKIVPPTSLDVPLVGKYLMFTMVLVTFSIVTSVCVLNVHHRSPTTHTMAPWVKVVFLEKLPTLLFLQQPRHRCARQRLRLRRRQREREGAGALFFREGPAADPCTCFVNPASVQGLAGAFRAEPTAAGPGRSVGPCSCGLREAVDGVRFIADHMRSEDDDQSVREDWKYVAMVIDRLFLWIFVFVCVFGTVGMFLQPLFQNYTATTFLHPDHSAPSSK
Chain of α7 nAChR Subtype (Q05941 23-502): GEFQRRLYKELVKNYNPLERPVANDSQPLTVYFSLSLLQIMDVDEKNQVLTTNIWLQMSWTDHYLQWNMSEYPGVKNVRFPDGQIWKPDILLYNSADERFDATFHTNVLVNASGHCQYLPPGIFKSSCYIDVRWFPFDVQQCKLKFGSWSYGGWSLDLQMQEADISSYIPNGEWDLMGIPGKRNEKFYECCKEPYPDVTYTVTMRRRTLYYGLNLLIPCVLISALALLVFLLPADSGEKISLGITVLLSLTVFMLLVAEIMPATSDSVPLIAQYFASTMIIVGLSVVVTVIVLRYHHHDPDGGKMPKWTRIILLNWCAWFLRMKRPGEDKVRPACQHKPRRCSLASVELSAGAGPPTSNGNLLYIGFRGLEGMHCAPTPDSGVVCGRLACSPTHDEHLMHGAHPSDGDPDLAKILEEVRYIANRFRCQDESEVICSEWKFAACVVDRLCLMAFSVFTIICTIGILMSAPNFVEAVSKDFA
Chain of Human α4β2 (P43681 29-627 limits assumed): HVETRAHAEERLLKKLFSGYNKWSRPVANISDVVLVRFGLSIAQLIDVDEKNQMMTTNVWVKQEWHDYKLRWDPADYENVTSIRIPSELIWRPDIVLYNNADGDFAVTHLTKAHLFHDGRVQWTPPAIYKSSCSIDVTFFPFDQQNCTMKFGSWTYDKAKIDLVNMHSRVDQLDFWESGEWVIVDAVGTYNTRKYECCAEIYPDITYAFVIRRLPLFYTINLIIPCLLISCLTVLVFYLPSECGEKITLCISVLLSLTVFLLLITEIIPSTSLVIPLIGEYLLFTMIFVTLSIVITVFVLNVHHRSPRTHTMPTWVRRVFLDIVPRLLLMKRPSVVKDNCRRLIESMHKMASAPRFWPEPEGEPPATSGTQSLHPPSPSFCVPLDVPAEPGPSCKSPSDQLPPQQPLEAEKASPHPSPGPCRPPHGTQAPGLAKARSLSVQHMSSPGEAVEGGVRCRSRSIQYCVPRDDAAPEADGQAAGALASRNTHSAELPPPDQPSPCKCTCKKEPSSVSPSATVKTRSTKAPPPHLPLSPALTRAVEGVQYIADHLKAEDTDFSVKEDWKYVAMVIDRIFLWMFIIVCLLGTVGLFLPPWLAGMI
Chain of Human α4β2 (P17787 26-502): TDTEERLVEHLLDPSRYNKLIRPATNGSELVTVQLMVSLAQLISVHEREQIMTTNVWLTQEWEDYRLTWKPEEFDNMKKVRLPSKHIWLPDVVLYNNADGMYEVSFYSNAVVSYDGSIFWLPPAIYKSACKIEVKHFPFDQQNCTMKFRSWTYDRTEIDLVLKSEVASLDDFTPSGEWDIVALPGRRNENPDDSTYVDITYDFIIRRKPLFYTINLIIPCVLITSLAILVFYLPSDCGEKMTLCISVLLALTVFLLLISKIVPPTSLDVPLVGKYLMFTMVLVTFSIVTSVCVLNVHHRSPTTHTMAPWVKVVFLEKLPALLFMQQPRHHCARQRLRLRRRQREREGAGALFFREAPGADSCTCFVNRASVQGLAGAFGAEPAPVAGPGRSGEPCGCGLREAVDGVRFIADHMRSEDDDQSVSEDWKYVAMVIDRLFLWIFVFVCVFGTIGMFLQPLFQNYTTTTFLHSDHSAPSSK

SMILES	Ki ([1]; read-out: Rat α4β2 Ki) [nM]	Ki [2] [nM]	activity in the NOR task (recognition index) ([3]; dose of 1 mg/kg, FIG. 2)	Ki [4] [nM]	inhibition at 5 µM [4] [%]	activity in the NOR task (recognition index) ([3]; dose of 0.1 mg/kg, FIG. 1)	Ki [4, 5] [nM]	Ki ([1]; Rat α4β2 Ki) [nM]
CNC(=O)C1CC2CNCC(C2)C1 (centres unmarked) [Compound B, N-methyl-3-azabicyclo[3.3.1]nonane-7-carboxamide]	6	2	active	> 10000	–	–	–	–
O=C(OCC1CCOC1)C1C[C@H]2CNC[C@H]2C1 (mixture of isomers) [(tetrahydrofuran-3-yl)methyl 3-azabicyclo[3.3.0]octane-7-carboxylate]	111	47.7	–	–	< 50	–	–	–
C#CCC(C)OC(=O)C1C[C@H]2CNC[C@H]2C1 (mixture of isomers) [pent-4-yn-2-yl 3-azabicyclo[3.3.0]octane-7-carboxylate]	144	68.7	–	–	< 50	–	–	–
C=CCNC(=O)C1CC2CNCC(C2)C1 (centres unmarked) [N-allyl-3-azabicyclo[3.3.1]nonane-7-carboxamide]	30.6	4.3	–	–	< 50	–	–	–
O=C(OCc1ccoc1)C1C[C@H]2CNC[C@H]2C1 (mixture of isomers) [(furan-3-yl)methyl 3-azabicyclo[3.3.0]octane-7-carboxylate]	19.6	16.3	–	–	< 50	–	–	–
O=C(NC1CC=CC1)C1CC2CNCC(C2)C1 (centres unmarked) [N-(3-cyclopentenyl)-3-azabicyclo[3.3.1]nonane-7-carboxamide]	45.3	24.3	–	–	< 50	–	–	–
N#Cc1ccoc1C(=O)[C@H]1C[C@H]2CNC[C@H]2C1 [cis-3-cyanofuran-2-yl(3-azabicyclo[3.3.0]oct-7-yl)methanone]	14	25.7	–	–	< 50	–	–	–
CC(C)(C)C(=O)C1C[C@H]2CNC[C@H]2C1 (mixture of isomers) [1-(3-azabicyclo[3.3.0]oct-7-yl)-2,2-dimethyl-1-propanone]	21.4	4.2	–	–	< 50	–	–	–
COC(=O)C1C[C@H]2CNC[C@H]2C1 (mixture of isomers) [Compound A, methyl 3-azabicyclo[3.3.0]octane-7-carboxylate]	20	8	–	> 10000	–	active	–	–
CCC(C)NC(=O)C1CC2CNCC(C2)C1 (centres unmarked) [N-sec-butyl-3-azabicyclo[3.3.1]nonane-7-carboxamide]	272	42.8	–	–	–	–	> 10000	–
CC1COCC(C)N1C(=O)C1C[C@H]2CNC[C@H]2C1 (some centres unmarked) [(3-azabicyclo[3.3.0]oct-7-yl)(2,6-dimethylmorpholin-1-yl)methanone]	57.5	71.1	–	–	< 50	–	–	–
O=C(Nc1ccccc1F)C1CC2CNCC(C2)C1 (centres unmarked) [N-(2-fluorophenyl)-3-azabicyclo[3.3.1]nonane-7-carboxamide]	63	24.1	–	–	< 50	–	–	–
O=C(NC1CCCC1)C1CC2CNCC(C2)C1 (centres unmarked) [N-cyclopentyl-3-azabicyclo[3.3.1]nonane-7-carboxamide]	102	26.8	–	–	< 50	–	–	–
O=C(Nc1ccc(F)cc1)C1CC2CNCC(C2)C1 (centres unmarked) [N-(4-fluorophenyl)-3-azabicyclo[3.3.1]nonane-7-carboxamide]	92.2	32.1	–	–	< 50	–	–	–
O=C(C1C[C@H]2CNC[C@H]2C1)N1CCCCO1 (mixture of isomers) [(3-azabicyclo[3.3.0]oct-7-yl)(1-oxazinan-2-yl)methanone]	17.4	5.5	–	–	–	–	≥ 10000	–
O=C(c1ccco1)[C@H]1C[C@H]2CNC[C@H]2C1 [cis-2-furanyl(3-azabicyclo[3.3.0]oct-7-yl)methanone]	–	13.2	–	–	< 50	–	–	11
O=C(NCC(F)(F)F)C1CC2CNCC(C2)C1 (centres unmarked) [N-(2,2,2-trifiuoroethyl)-3-azabicyclo[3.3.1]nonane-7-carboxamide]	40.8	22.8	–	–	–	–	> 10000	–

SMILES	Ki ([1]; read-out: Rat α4β2 Ki) [nM]	Ki [2] [nM]	activity in the NOR task (recognition index) ([3]; dose of 1 mg/kg, FIG. 2)	Ki [4] [nM]	inhibition at 5 µM [4] [%]	activity in the NOR task (recognition index) ([3]; dose of 0.1 mg/kg, FIG. 1)	Ki [4, 5] [nM]	Ki ([1]; Rat α4β2 Ki) [nM]
O=C(OCC1CC1)C1C[C@H]2CNC[C@H]2C1 (mixture of isomers) [cyclopropylmethyl 3-azabicyclo[3.3.0]octane-7-carboxylate]	–	40.3	–	> 10000	–	–	–	62.1
C#CCN(C)C(=O)C1C[C@H]2CNC[C@H]2C1 (some centres unmarked) [N-methyl-N-prapargyl-3-azabicyclo[3.3.0]octane-7-carboxamide]	139	52.5	–	≥ 10000	–	–	–	–
O=C(C1C[C@H]2CNC[C@H]2C1)N1CCC[C@@H]1CO (mixture of isomers) [(R)-(2-(hydroxymethyl)-1-pyrrolidinyl)(3-azabicyclo[3.3.0]oct-7-yl)methanone]	387	255	–	–	< 50	–	–	–
O=C(c1ccncc1)C1C[C@H]2CNC[C@H]2C1 (mixture of isomers) [pyridin-4-yl(3-azabicyclo[3.3.0]oct-7-yl)methanone]	43	36.4	–	–	< 50	–	–	–
O=C(c1ccc(F)cc1)C1C[C@H]2CNC[C@H]2C1 (mixture of isomers) [4-fluorophenyl(3-azabicyclo[3.3.0]oct-7-yl)methanone]	321	134	–	–	< 50	–	–	–
O=C(C1CCCC1)C1C[C@H]2CNC[C@H]2C1 (mixture of isomers) [cyclopentyl(3-azabicyclo[3.3.0]oct-7-yl)methanone]	15.9	7.5	–	–	< 50	–	–	–
CC(C)CC(=O)C1C[C@H]2CNC[C@H]2C1 (mixture of isomers) [1-(3-azabicyclo[3.3.0]oct-7-yl)-3-methyl-1-butanone]	27.3	4.6	–	–	< 50	–	–	–
CNC(=O)C1C[C@H]2CNC[C@H]2C1 (mixture of isomers) [N-methyl-3-azabicyclo[3.3.0]octane-7-carboxamide]	81.4	185	–	27300	–	–	–	–
CCNC(=O)C1CC2CNCC(C2)C1 (centres unmarked) [N-ethyl-3-azabicyclo[3.3.1]nonane-7-carboxamide]	13.5	6.4	–	–	< 50	–	–	–
O=C(NCc1ccco1)C1C[C@H]2CNC[C@H]2C1 (mixture of isomers) [N-(2-furanylmethyl)-3-azabicyclo[3.3.0]octane-7-carboxamide]	–	302	–	74900	–	–	–	272
CC(C)(C)NC(=O)C1CC2CNCC(C2)C1 (centres unmarked) [N-tert-butyl-3-azabicyclo[3.3.1]nonane-7-carboxamide]	10.9	7.1	–	–	< 50	–	–	–
CC(C)C(=O)C1C[C@H]2CNC[C@H]2C1 (mixture of isomers) [1-(3-azabicyclo[3.3.0]oct-7-yl)-2-methyl-1-propanone]	–	0.2	–	2380	–	–	–	0.3
O=C(NC1CC1)C1CC2CNCC(C2)C1 (centres unmarked) [N-cyclopropyl-3-azabicyclo[3.3.1]nonane-7-carboxamide]	707	15.6	–	–	< 50	–	–	–
C=CCNC(=O)C1C[C@H]2CNC[C@H]2C1 (mixture of isomers) [N-allyl-3-azabicyclo[3.3.0]octane-7-carboxamide]	419	176	–	≥ 10000	–	–	–	–
O=C(c1ccco1)[C@@H]1C[C@H]2CNC[C@H]2C1 [trans-2-furanyl(3-azabicyclo[3.3.0]oct-7-yl)methanone]	–	226	–	–	< 50	–	–	463
O=C(NCc1ccccc1)C1CC2CNCC(C2)C1 (centres unmarked) [N-benzyl-3-azabicyclo[3.3.1]nonane-7-carboxamide]	885	9	–	–	< 50	–	–	–
O=C(OC1CC=CC1)C1C[C@H]2CNC[C@H]2C1 (mixture of isomers) [cyclopent-3-en-1-yl 3-azabicyclo[3.3.0]octane-7-carboxylate]	59.3	22.5	–	–	–	–	> 10000	–
